Assay results published in ChEMBL document CHEMBL1201862, “PubChem BioAssay data set” (2004).
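Method: 48-hour compound exposure of cells in 96-well plates, five concentrations, linear interpolation of endpoints. Abbreviation: GI50, concentration required for 50% inhibition of growth.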 Active and inactive are the calls of the source. Rule as the data show it: active = GI50 up to about 1.1 µM and inactive = higher.

Experiments:
Test in all cases: inhibition of tumour cell growth, NCI panel, 48 h
ACHN = tested on: ACHN
CCRF-CEM = tested on: CCRF-CEM
COLO 205 = tested on: COLO 205
DU-145 = tested on: DU-145
HCT-116 = tested on: HCT-116
HL-60 = tested on: HL-60
Hs-578T = tested on: Hs-578T
IGROV-1 = tested on: IGROV-1
M14 = tested on: M14
MDA-N = tested on: MDA-N
NCI-H226 = tested on: NCI-H226
NCI-H23 = tested on: NCI-H23
NCI-H522 = tested on: NCI-H522
NCI/ADR-RES = tested on: NCI/ADR-RES
OVCAR-5 = tested on: OVCAR-5
SN12C = tested on: SN12C
SW-620 = tested on: SW-620
TK-10 = tested on: TK-10
UACC-62 = tested on: UACC-62
BT-549 = tested on: BT-549

Structure (SMILES)	GI50 (ACHN)	GI50 (CCRF-CEM)	GI50 (COLO 205)	GI50 (DU-145)	GI50 (HCT-116)	GI50 (HL-60)	GI50 (Hs-578T)	GI50 (IGROV-1)	GI50 (M14)	GI50 (MDA-N)	GI50 (NCI-H226)	GI50 (NCI-H23)	GI50 (NCI-H522)	GI50 (NCI/ADR-RES)	GI50 (OVCAR-5)	GI50 (SN12C)	GI50 (SW-620)	GI50 (TK-10)	GI50 (UACC-62)	GI50 (BT-549)
O=C(C=P(c1ccccc1)(c1ccccc1)c1ccccc1)c1ccccc1-c1ccccc1C(=O)C=P(c1ccccc1)(c1ccccc1)c1ccccc1	0.0272 µM (active)	< 0.0128 µM (active)	0.0103 µM (active)	0.0184 µM (active)	0.0222 µM (active)	< 0.01 µM (active)	0.0319 µM (active)	< 0.015 µM (active)	0.0352 µM (active)	0.0229 µM (active)	0.0221 µM (active)	0.018 µM (active)	0.014 µM (active)	0.373 µM (active)	0.0462 µM (active)	0.0193 µM (active)	0.027 µM (active)	< 0.01 µM (active)	< 0.0163 µM (active)	–
C[C@H](O)CCC(=O)c1ccoc1	> 100 µM (inactive)	> 100 µM (inactive)	> 100 µM (inactive)	–	> 100 µM (inactive)	> 100 µM (inactive)	–	> 100 µM (inactive)	> 100 µM (inactive)	–	> 100 µM (inactive)	> 100 µM (inactive)	> 100 µM (inactive)	–	> 100 µM (inactive)	> 100 µM (inactive)	> 100 µM (inactive)	> 100 µM (inactive)	> 100 µM (inactive)	–
O=C1c2cccc3cc([N+](=O)[O-])cc(c23)C(=O)N1c1ccc(OCCN2CCCC2)cc1	10 µM (inactive)	18.6 µM (inactive)	9.46 µM (inactive)	23.3 µM (inactive)	6.79 µM (inactive)	10.8 µM (inactive)	24.9 µM (inactive)	12.3 µM (inactive)	20 µM (inactive)	30.8 µM (inactive)	9.35 µM (inactive)	17.6 µM (inactive)	10.8 µM (inactive)	32.5 µM (inactive)	19.4 µM (inactive)	> 100 µM (inactive)	17.2 µM (inactive)	22.4 µM (inactive)	–	–
COc1ccccc1/C=C\C(=O)C1COCN1 (configuration not stated)	10.7 µM (inactive)	3.77 µM (inactive)	6.35 µM (inactive)	17.3 µM (inactive)	6.97 µM (inactive)	19 µM (inactive)	16.3 µM (inactive)	16.1 µM (inactive)	50.8 µM (inactive)	–	18.7 µM (inactive)	> 100 µM (inactive)	16 µM (inactive)	15.2 µM (inactive)	24.7 µM (inactive)	16.4 µM (inactive)	4.36 µM (inactive)	21.2 µM (inactive)	14.5 µM (inactive)	–
O=C(O)CC(NC(=O)/C(=C/c1ccccc1O)NC(=O)c1ccccc1)C(=O)O (configuration not stated)	40.8 µM (inactive)	33.9 µM (inactive)	> 100 µM (inactive)	–	> 100 µM (inactive)	25.8 µM (inactive)	–	58.9 µM (inactive)	> 100 µM (inactive)	> 100 µM (inactive)	> 100 µM (inactive)	> 100 µM (inactive)	65.5 µM (inactive)	> 100 µM (inactive)	> 100 µM (inactive)	> 100 µM (inactive)	> 100 µM (inactive)	> 100 µM (inactive)	42.5 µM (inactive)	57 µM (inactive)
CN(C)CCCN1CCc2c([nH]c3ccccc23)C1c1cccnc1 (configuration not stated)	> 100 µM (inactive)	> 100 µM (inactive)	> 100 µM (inactive)	–	> 100 µM (inactive)	> 100 µM (inactive)	–	> 100 µM (inactive)	> 100 µM (inactive)	–	> 100 µM (inactive)	> 100 µM (inactive)	> 100 µM (inactive)	–	> 100 µM (inactive)	> 100 µM (inactive)	> 100 µM (inactive)	> 100 µM (inactive)	> 100 µM (inactive)	–
O=C(OCC1CC(C2(O)CCCCC2)C(=O)O1)c1ccccc1 (configuration not stated)	> 100 µM (inactive)	> 100 µM (inactive)	> 100 µM (inactive)	> 100 µM (inactive)	> 100 µM (inactive)	–	–	> 100 µM (inactive)	> 100 µM (inactive)	–	> 100 µM (inactive)	> 100 µM (inactive)	> 100 µM (inactive)	> 100 µM (inactive)	> 100 µM (inactive)	> 100 µM (inactive)	> 100 µM (inactive)	> 100 µM (inactive)	> 100 µM (inactive)	> 100 µM (inactive)
COc1cc2c(c(OC)c1OC)C(=O)[C@H]1OC(=O)N[C@@H]21	> 100 µM (inactive)	> 100 µM (inactive)	> 100 µM (inactive)	> 100 µM (inactive)	> 100 µM (inactive)	> 100 µM (inactive)	> 100 µM (inactive)	–	> 100 µM (inactive)	–	> 100 µM (inactive)	> 100 µM (inactive)	–	> 100 µM (inactive)	> 100 µM (inactive)	> 100 µM (inactive)	> 100 µM (inactive)	> 100 µM (inactive)	> 100 µM (inactive)	–
CC(=O)c1c2c(cc3c1CC1(C3)Cc3cc4c(c(C(=O)O)c3C1)CCCC4)CCCC2.CC(N)c1ccccc1 (configuration not stated)	28.8 µM (inactive)	31.7 µM (inactive)	27.9 µM (inactive)	49 µM (inactive)	25.1 µM (inactive)	25.5 µM (inactive)	36.6 µM (inactive)	34.8 µM (inactive)	28.8 µM (inactive)	42.1 µM (inactive)	–	42 µM (inactive)	46.1 µM (inactive)	40.1 µM (inactive)	28.5 µM (inactive)	30.7 µM (inactive)	45.4 µM (inactive)	37.5 µM (inactive)	30.7 µM (inactive)	–
NS(=O)(=O)c1ccccc1C(=O)N/N=C(\c1nc2ccc([N+](=O)[O-])cc2[nH]c1=O)C(O)c1ccc([N+](=O)[O-])cc1 (configuration not stated)	41.6 µM (inactive)	71.1 µM (inactive)	> 100 µM (inactive)	> 100 µM (inactive)	84.1 µM (inactive)	> 100 µM (inactive)	–	> 100 µM (inactive)	> 100 µM (inactive)	–	> 100 µM (inactive)	> 100 µM (inactive)	10.6 µM (inactive)	–	> 100 µM (inactive)	> 100 µM (inactive)	> 100 µM (inactive)	> 100 µM (inactive)	52.2 µM (inactive)	–
COc1cc(OC)c(/C=N\Nc2nc3ccccc3c(=O)n2-c2ccccc2)c(OC)c1	18.1 µM (inactive)	14.2 µM (inactive)	45.3 µM (inactive)	31.3 µM (inactive)	20.1 µM (inactive)	33 µM (inactive)	–	40.6 µM (inactive)	27.3 µM (inactive)	17.4 µM (inactive)	19.4 µM (inactive)	58.5 µM (inactive)	26.6 µM (inactive)	19.9 µM (inactive)	43.9 µM (inactive)	30.7 µM (inactive)	31 µM (inactive)	34.1 µM (inactive)	19.5 µM (inactive)	–
CCOC(=O)CC(=O)Sc1ccccc1	23.1 µM (inactive)	3.82 µM (inactive)	25.9 µM (inactive)	–	12.6 µM (inactive)	13.4 µM (inactive)	–	12.5 µM (inactive)	14.2 µM (inactive)	–	27.2 µM (inactive)	24.5 µM (inactive)	11.8 µM (inactive)	–	36.4 µM (inactive)	10.3 µM (inactive)	19.1 µM (inactive)	38.3 µM (inactive)	16 µM (inactive)	–
COC(=O)/C=C/c1c(CC=C(C)C)ncn1C	> 76.7 µM (inactive)	> 41.3 µM (inactive)	20.9 µM (inactive)	–	24.3 µM (inactive)	4.21 µM (inactive)	–	> 100 µM (inactive)	16.4 µM (inactive)	–	> 38.5 µM (inactive)	37.7 µM (inactive)	25.3 µM (inactive)	–	> 100 µM (inactive)	88.5 µM (inactive)	6.79 µM (inactive)	55.7 µM (inactive)	16.6 µM (inactive)	–
CCC(C)(C)C1CCC2c3c([nH]c4ccccc34)C3C(=O)N(c4ccc(OC)cc4)C(=O)C3C2C1 (configuration not stated)	11.2 µM (inactive)	–	10.3 µM (inactive)	5.4 µM (inactive)	9.08 µM (inactive)	–	–	15.7 µM (inactive)	18.8 µM (inactive)	18.7 µM (inactive)	16.5 µM (inactive)	10.5 µM (inactive)	7.16 µM (inactive)	15.6 µM (inactive)	15.3 µM (inactive)	2.42 µM (inactive)	17.4 µM (inactive)	16.7 µM (inactive)	54.7 µM (inactive)	16.1 µM (inactive)
CC(C)=C/C(CC(O)(C(F)(F)F)C(F)(F)F)=N\O	> 100 µM (inactive)	> 100 µM (inactive)	> 100 µM (inactive)	> 100 µM (inactive)	> 100 µM (inactive)	> 100 µM (inactive)	> 100 µM (inactive)	> 100 µM (inactive)	> 100 µM (inactive)	–	> 100 µM (inactive)	> 100 µM (inactive)	–	> 100 µM (inactive)	> 100 µM (inactive)	> 100 µM (inactive)	> 100 µM (inactive)	> 100 µM (inactive)	> 100 µM (inactive)	–
C[n+]1c(-c2ccc(/C=N/N=C/c3ccc(-c4cn5ccccc5[n+]4C)cc3)cc2)cn2ccccc21	> 100 µM (inactive)	> 100 µM (inactive)	> 100 µM (inactive)	–	> 100 µM (inactive)	> 100 µM (inactive)	> 100 µM (inactive)	> 100 µM (inactive)	> 100 µM (inactive)	> 100 µM (inactive)	–	–	> 100 µM (inactive)	> 100 µM (inactive)	> 100 µM (inactive)	> 100 µM (inactive)	> 100 µM (inactive)	> 100 µM (inactive)	–	–
